In ChEMBL document CHEMBL5154887, “Novel CRBN-Recruiting Proteolysis-Targeting Chimeras as Degraders of Stimulator of Interferon Genes with In Vivo Anti-Inflammatory Efficacy” (J Med Chem, 2022):
Active and inactive are the calls of the source. The rule behind the calls is not given here.

Legend:
[1] = MRT (0 to infinity) in Sprague-Dawley rat at 20 mg/kg, po measured upto 48 hrs by UPLC-triple quadrupole MS analysis; assay type: ADME, organism-based; conditions: in vivo
[2] = AUC (0 to t) in Sprague-Dawley rat at 20 mg/kg, po measured upto 48 hrs by UPLC-triple quadrupole MS analysis; assay type: ADME, organism-based; set-up: dose 20 mg/kg, time < 48 hrs, route po; conditions: in vivo
Mus musculus [3] = assay: Antiinflammatory activity against cisplatin-induced acute kidney injury in C57BL/6J mouse model assessed as reduction in ischemic symptoms at 30 mg/kg, ip pretreated for 1 hr followed by cisplatin administration and measured after 72 hrs relative to control; assay type: functional, organism-based; conditions: time 73.0 hrs
[4] = Cytotoxicity against mouse C17.2 cells assessed as reduction in cell viability at <10 uM by MTT assay; assay type: toxicity, cell-based; conditions: c17.2, 10 µM
[5] = Toxicity in C57BL/6J mouse model of cisplatin-induced acute kidney injury assessed as survival rate at 60 mg/kg, ip pretreated for 1 hr followed by cisplatin administration and measured after 72 hrs relative to control; assay type: organism-based; conditions: in vivo, 73 h
[6] = biological target: T1, Protein cereblon/Stimulator of interferon genes protein (Homo sapiens, UniProt Q96SW2+Q86WV6); assay: Protac activity at CRBN/STING in human THP-1 cells assessed as increase in STING degradation at 10 uM pretreated with lysosome inhibitor BAF for 1 hr followed by compound addition and measured after 48 hrs by Western blot analysis; assay type: cell-based
Target sequence in this assay (Q86WV6 whole entry, looked up): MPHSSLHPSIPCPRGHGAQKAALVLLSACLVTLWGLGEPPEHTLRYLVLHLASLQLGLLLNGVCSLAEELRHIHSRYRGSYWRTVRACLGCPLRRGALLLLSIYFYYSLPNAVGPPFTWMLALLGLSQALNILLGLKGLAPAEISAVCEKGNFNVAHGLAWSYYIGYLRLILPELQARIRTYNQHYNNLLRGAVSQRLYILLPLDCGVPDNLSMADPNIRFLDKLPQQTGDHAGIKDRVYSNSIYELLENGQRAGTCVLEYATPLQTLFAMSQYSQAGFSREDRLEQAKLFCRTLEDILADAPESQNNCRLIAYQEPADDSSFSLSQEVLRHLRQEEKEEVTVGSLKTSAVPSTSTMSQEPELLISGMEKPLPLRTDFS
Target sequence in this assay (Q96SW2 whole entry, looked up): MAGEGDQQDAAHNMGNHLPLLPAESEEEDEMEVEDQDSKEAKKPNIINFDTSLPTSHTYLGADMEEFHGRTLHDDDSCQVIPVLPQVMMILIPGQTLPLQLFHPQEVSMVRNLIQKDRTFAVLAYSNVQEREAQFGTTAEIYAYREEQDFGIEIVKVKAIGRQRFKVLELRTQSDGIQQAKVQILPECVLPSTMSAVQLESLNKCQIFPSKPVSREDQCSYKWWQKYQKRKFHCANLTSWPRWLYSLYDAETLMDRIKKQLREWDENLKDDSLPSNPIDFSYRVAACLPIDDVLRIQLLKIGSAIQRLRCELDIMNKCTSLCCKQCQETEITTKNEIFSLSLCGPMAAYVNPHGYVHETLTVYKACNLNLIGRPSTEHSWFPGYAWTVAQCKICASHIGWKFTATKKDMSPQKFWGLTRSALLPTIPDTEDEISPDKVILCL

[7] = (§1) In vivo inhibition of STING signalling pathway in cisplatin-induced acute kidney injury in C57BL/6J mouse model assessed as reduction in STING protein expression in kidney at 60 mg/kg, ip pretreated for 1 hr followed by cisplatin administration and measured after 72 hrs by Western blot analysis (Rvb= 375%); assay type: functional; set-up: scale not given: the % may be the effect or the level left; conditions: time 73 hrs
[8] = biological target: Stimulator of interferon genes protein (Homo sapiens) (UniProt Q86WV6); assay: Inhibition of STING pathway in human THP-1 cells assessed as inhibition of cGAMP-triggered NF-kappaB p-p65 expression preincubated for 2 hrs followed by cGAMP stimulation and measured after 24 hrs by Western blot analysis; assay type: cell-based; conditions: dose 0-20 µM, time 26.0 hrs, DDE = dose-dependent effect
Sequence of Stimulator of interferon genes protein (Homo sapiens) (Q86WV6 whole entry): as the sequence (Q86WV6 whole entry, looked up) above

[9] = biological target: Stimulator of interferon genes protein (Homo sapiens) (UniProt Q86WV6); assay: Inhibition of STING pathway in human THP-1 cells assessed as inhibition of cGAMP-triggered pTBK1 expression preincubated for 2 hrs followed by cGAMP stimulation and measured after 24 hrs by Western blot analysis; assay type: cell-based; conditions: dose 0-20 µM, time 26.0 hrs, DDE = dose-dependent effect
[10] = AUC (0 to infinity) in Sprague-Dawley rat at 2 mg/kg, iv measured upto 48 hrs by UPLC-triple quadrupole MS analysis; assay type: ADME, organism-based; set-up: time < 48 hrs, dose 2 mg/kg, route iv; conditions: in vivo
THP-1 [11] = assay: Inhibition of cGAS-STING signalling pathway in human THP-1 cells assessed as downregulation of cGAMP-triggered IFN-beta expression preincubated for 2 hrs followed by cGAMP stimulation and measured after 24 hrs by ELISA; assay type: cell-based; conditions: dose 2.5-20 µM, time 26.0 hrs, DDE = dose-dependent effect
[12] = Toxicity in cisplatin-induced acute kidney injury in C57BL/6J mouse model assessed as morphological abnormalities in liver at 30 to 60 mg/kg, ip pretreated for 1 hr followed by cisplatin administration and measured after 72 hrs by H and E staining based analysis; assay type: organism-based; conditions: in vivo, 73 h, dose 30-60 mg/kg
[13] = Toxicity in cisplatin-induced acute kidney injury in C57BL/6J mouse model assessed as morphological abnormalities in heart at 30 to 60 mg/kg, ip pretreated for 1 hr followed by cisplatin administration and measured after 72 hrs by H and E staining based analysis; assay type: organism-based; conditions: in vivo, 73 h, dose 30-60 mg/kg
Mus musculus [14] = assay: Antiinflammatory activity against cisplatin-induced acute kidney injury in C57BL/6J mouse model assessed as reduction in kidney weight at 30 mg/kg, ip pretreated for 1 hr followed by cisplatin administration and measured after 72 hrs relative to control; assay type: functional; set-up: scale not given: the % may be the effect or the level left; conditions: time 73 hrs
[15] = Renal toxicity in C57BL/6J mouse assessed as reduction in creatinine level at 60 mg/kg, ip (Rvb= 8.5 umol/L); assay type: organism-based; conditions: in vivo
[16] = as §1, with “30” for “60”; assay type: functional; set-up: scale not given: the % may be the effect or the level left; conditions: time 73 hrs
[17] = biological target: T1, Protein cereblon/Stimulator of interferon genes protein; assay: Protac activity at CRBN/STING in human THP-1 cells assessed as increase in STING degradation incubated for 48 hrs by Western blot analysis; assay type: cell-based
Target sequence in this assay (Q96SW2 whole entry): as the sequence (Q96SW2 whole entry, looked up) above
Target sequence in this assay (Q86WV6 whole entry): as the sequence (Q86WV6 whole entry, looked up) above

[18] = AUC (0 to infinity) in Sprague-Dawley rat at 20 mg/kg, po measured upto 48 hrs by UPLC-triple quadrupole MS analysis; assay type: ADME, organism-based; set-up: dose 20 mg/kg, time < 48 hrs, route po; conditions: in vivo
Mus musculus [19] = assay: Renal protective activity against cisplatin-induced acute kidney injury in C57BL/6J mouse model assessed as reduction in kidney swelling at 60 mg/kg, ip by NMR based analysis; assay type: functional, organism-based
Mus musculus [20] = assay: Renal protective activity against cisplatin-induced acute kidney injury in C57BL/6J mouse model assessed as clear cortical medullary demarcation at 60 mg/kg, ip by NMR based analysis; assay type: functional, organism-based
Mus musculus [21] = assay: In vivo inhibition of STING signalling pathway in ip dosed cisplatin-induced acute kidney injury in C57BL/6J mouse model assessed as reduction in IFN-beta expression in blood of mouse eyeballs pretreated for 1 hr followed by cisplatin administration and measured after 72 hrs by ELISA; assay type: functional, organism-based; conditions: time 73.0 hrs, DDE = dose-dependent effect
[22] = Apparent volume of distribution in Sprague-Dawley rat at 20 mg/kg, po measured upto 48 hrs by UPLC-triple quadrupole MS analysis; assay type: ADME, organism-based; conditions: in vivo
[23] = Oral bioavailability in Sprague-Dawley rat at 20 mg/kg measured upto 48 hrs by UPLC-triple quadrupole MS analysis; assay type: ADME, organism-based; conditions: in vivo
Mus musculus [24] = assay: Renal protective activity against cisplatin-induced acute kidney injury in C57BL/6J mouse model assessed as improvement in renal blood flow velocity at 60 mg/kg, ip by B-mode ultrasound scanner analysis; assay type: functional, organism-based
THP-1 [25] = assay: Inhibition of cGAS-STING signalling pathway in human THP-1 cells assessed as downregulation of cGAMP-triggered IL-6 expression preincubated for 2 hrs followed by cGAMP stimulation and measured after 24 hrs by ELISA; assay type: cell-based; conditions: dose 2.5-20 µM, time 26.0 hrs, DDE = dose-dependent effect
[26] = Toxicity in cisplatin-induced acute kidney injury in C57BL/6J mouse model assessed as tubular obstruction in kidney at 30 to 60 mg/kg, ip pretreated for 1 hr followed by cisplatin administration and measured after 72 hrs by H and E staining based analysis; assay type: organism-based; conditions: in vivo, 73 h, dose 30-60 mg/kg
[27] = Half life in Sprague-Dawley rat at 2 mg/kg, iv measured upto 48 hrs by UPLC-triple quadrupole MS analysis; assay type: ADME, organism-based; conditions: in vivo
Mus musculus [28] = assay: Renal protective activity against cisplatin-induced acute kidney injury in C57BL/6J mouse model assessed as reduction in abnormal signal intensities of T2 at 60 mg/kg, ip by NMR based analysis; assay type: functional, organism-based
[29] = Toxicity in C57BL/6J mouse assessed as body weight loss at 30 mg/kg, ip measured after 4 days relative to control; assay type: organism-based; conditions: in vivo, 96 h, time 4 day
L02 = assay: Cytotoxicity against human L02 cells assessed as reduction in cell viability at <10 uM by MTT assay; assay type: toxicity, cell-based; conditions: l02, 10 µM

In the case of `O=C(/C=C/C(=O)Nc1ccc(NC(=O)c2ccc([N+](=O)[O-])o2)cc1)NCCCCCCNc1cccc2c1C(=O)N(C1CCC(=O)NC1=O)C2=O` (stereo not given), the MRT inf [1] is reported as 11.7 h, the AUC(0-t) at 48 h [2] is reported as 0.0522 µg·h/mL and the Activity (Mus musculus [3]) is reported as “Active”. For the same molecule, the Activity [4] was “Non-Toxic”, the Survival [5] was 100% and the Activity [6] was “Active”. The Activity [7] was 70%, the inhibition [8] was “Dde” and the inhibition [9] was “Dde”. The AUC(0-inf) [10] was 0.259 µg·h/mL, the Activity (THP-1 [11]) was “Dde” and the Activity [12] was “Non-Toxic”. The Activity [13] was “Non-Toxic”, the Activity (Mus musculus [14]) was 14% and the Activity [15] was 14.8 µmol/L. For the same molecule, the Activity [16] was 150%, the DC50 [17] was 3.2 µM and the AUC(0-inf) [18] was 0.0557 µg·h/mL. The Activity (Mus musculus [19]) was “Active”, the Activity (Mus musculus [20]) was “Active” and the inhibition (Mus musculus [21]) was “Dde”. The Vz [22] was 4480.43 L/kg, the bioavailability [23] was 2.15% and the Activity (Mus musculus [24]) was “Active”. The Activity (THP-1 [25]) was “Dde”, the Activity [26] was “Non-Toxic” and the half-life [27] was 3.86 h. The Activity (Mus musculus [28]) was “Active”, the Activity [29] was 13% and the Activity (L02) was “Non-Toxic”.
